Molecular target: T1, human M1 receptor (hCHRM1) (Homo sapiens, UniProt P11229)
T1 construct: expressed in transfected cells; host or cells: CHO-K1
T1 sequence (P11229 1-460): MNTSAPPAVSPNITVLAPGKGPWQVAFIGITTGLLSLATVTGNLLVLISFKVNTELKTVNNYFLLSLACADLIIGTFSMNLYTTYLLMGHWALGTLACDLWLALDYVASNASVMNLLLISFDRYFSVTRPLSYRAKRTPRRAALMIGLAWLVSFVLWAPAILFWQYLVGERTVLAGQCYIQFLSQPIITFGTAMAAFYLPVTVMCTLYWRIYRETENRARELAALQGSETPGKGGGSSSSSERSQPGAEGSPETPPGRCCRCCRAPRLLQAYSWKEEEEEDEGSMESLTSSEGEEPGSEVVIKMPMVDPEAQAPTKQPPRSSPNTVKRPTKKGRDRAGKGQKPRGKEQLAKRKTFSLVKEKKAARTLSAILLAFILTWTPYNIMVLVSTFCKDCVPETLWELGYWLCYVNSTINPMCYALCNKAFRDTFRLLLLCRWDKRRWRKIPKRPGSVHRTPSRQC
Assay: Measurement of M1 receptor positive allosteric modulator (M1PAM) activity, calcium fluorescence (FLIPRtetra) in CHO-K1 cells in the presence of acetylcholine at EC20
Type: cell-based
Conditions: in the presence of acetylcholine at EC20 (final 0.6 nM), CHO-K1 cells expressing hCHRM1; for EC50: inflection point of M1PAM activity, read-out: IP value; for activity (%) at 10 μM: test compound 10 μM
Summary of the method: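 PAM activity was measured as calcium flux by FLIPRtetra over 1 min after co-addition of compound and EC20 acetylcholine (final 0.6 nM) to Fluo-4-loaded hCHRM1 CHO-K1 cells. The response was scaled between DMSO (0%) and 1 μM acetylcholine (100%), and the inflection point of the concentration curve gives the IP value.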

Compound | EC50 [nM] | activity (%) at 10 μM [%]
Cn1cc(-c2ccc(CN3Cc4cccc(O[C@H]5CCC(F)(F)C[C@@H]5O)c4C3=O)cc2)cn1 (relative stereo) [Example 2, 7-((trans-4,4-difluoro-2-hydroxycyclohexyl)oxy)-2-(4-(1-methyl-1H-pyrazol-4-yl)benzyl)isoindolin-1-one] | 8.7 | 105
NC(=O)c1ccc(CN2Cc3ccnc(Oc4ccc(CC(F)(F)F)cc4F)c3C2=O)cc1F [Example 459, 2-fluoro-4-((4-(2-fluoro-4-(2,2,2-trifluoroethyl)phenoxy)-3-oxo-1,3-dihydro-2H-pyrrolo[3,4-c]pyridin-2-yl)methyl)benzamide] | 32 | 93
Cn1cc(-c2ccc(CN3Cc4cccc(O[C@H]5CCCC[C@@H]5O)c4C3=O)cn2)cn1 (relative stereo) [Example 27] | 6.4 | 97
NC(=O)c1ccc(CN2Cc3ccnc(Oc4ccc(C5CC5)cc4F)c3C2=O)cc1 [Example 448, 4-((4-(4-cyclopropyl-2-fluorophenoxy)-3-oxo-1,3-dihydro-2H-pyrrolo[3,4-c]pyridin-2-yl)methyl)benzamide] | 6.1 | 102
Cc1nn(C)cc1-c1ccc(CN2Cc3ccnc(OCC4CCOCC4)c3C2=O)c(F)c1 [Example 262, 2-(4-(1,3-dimethyl-1H-pyrazol-4-yl)-2-fluorobenzyl)-4-((tetrahydro-2H-pyran-4-yl)methoxy)-1,2-dihydro-3H-pyrrolo[3,4-c]pyridin-3-one] | 54 | 107
Cc1nn(C)cc1-c1ccc(CN2Cc3ccnc(O[C@@H]4CCC[C@H]4O)c3C2=O)cc1 (single isomer, unassigned) [Example 255, 2-(4-(1,3-dimethyl-1H-pyrazol-4-yl)benzyl)-4-((trans-2-hydroxycyclopentyl)oxy)-1,2-dihydro-3H-pyrrolo[3,4-c]pyridin-3-one] | 48 | 106
Cc1cc(C#N)cc(F)c1Oc1nccc2c1C(=O)N(Cc1ccc(-c3ccn(C)n3)cc1)C2 [Example 417, 3-fluoro-5-methyl-4-((2-(4-(1-methyl-1H-pyrazol-3-yl)benzyl)-3-oxo-2,3-dihydro-1H-pyrrolo[3,4-c]pyridin-4-yl)oxy)benzonitrile] | 16 | 96
Cc1n[nH]c(C)c1Oc1cccc2c1C(=O)N(Cc1ccc(-c3cnn(C)c3)cc1)C2 [Example 22, 7-((3,5-dimethyl-1H-pyrazol-4-yl)oxy)-2-(4-(1-methyl-1H-pyrazol-4-yl)benzyl)isoindolin-1-one] | 190 | 103
Cc1cc(-c2ccc(CN3Cc4ncnc(Oc5c(F)cc(F)cc5F)c4C3=O)cc2)ccn1 [Example 367, 6-(4-(2-methylpyridin-4-yl)benzyl)-4-(2,4,6-trifluorophenoxy)-6,7-dihydro-5H-pyrrolo[3,4-d]pyrimidin-5-one] | 28 | 101
Cn1cc(-c2ccc(CN3Cc4ccnc(Oc5ccc(OC(F)(F)F)cc5C#N)c4C3=O)cc2)cn1 [Example 363, 2-((2-(4-(1-methyl-1H-pyrazol-4-yl)benzyl)-3-oxo-2,3-dihydro-1H-pyrrolo[3,4-c]pyridin-4-yl)oxy)-5-(trifluoromethoxy)benzonitrile] | 6.6 | 94
Cn1ccc(-c2ccc(CN3Cc4ccnc(OCC5CCCO5)c4C3=O)cc2)n1 (single isomer, unassigned) [Example 246, 2-(4-(1-methyl-1H-pyrazol-3-yl)benzyl)-4-((tetrahydrofuran-2-yl)methoxy)-1,2-dihydro-3H-pyrrolo[3,4-c]pyridin-3-one] | 9.4 | 100
COc1cccc(F)c1Oc1nccc2c1C(=O)N(Cc1ccc(-c3cn(C)nc3C)cc1)C2 [Example 357, 2-(4-(1,3-dimethyl-1H-pyrazol-4-yl)benzyl)-4-(2-fluoro-6-methoxyphenoxy)-1,2-dihydro-3H-pyrrolo[3,4-c]pyridin-3-one] | 51 | 90
O=C1c2c(cccc2O[C@H]2CCCC[C@@H]2O)CN1Cc1ccc(Br)cc1 (relative stereo) [Example 25, 2-(4-bromobenzyl)-7-((trans-2-hydroxycyclohexyl)oxy)isoindolin-1-one] | 190 | 113

Further compounds by falling EC50, results first:

EC50 [nM] | activity (%) at 10 μM [%] | Compound
210 | 99 | O=C1c2c(cccc2O[C@H]2CCCC[C@@H]2O)CN1Cc1ccc(Cl)nc1 (relative stereo) [Example 43, 2-((6-chloropyridin-3-yl)methyl)-7-((trans-2-hydroxycyclohexyl)oxy)isoindolin-1-one]
190 | 104 | O=C1c2c(cccc2O[C@H]2CCCC[C@@H]2O)CN1Cc1ccc(-c2ccnn2C2CCCCO2)cc1 (relative stereo) [Example 30, 7-((trans-2-hydroxycyclohexyl)oxy)-2-(4-(1-(tetrahydro-2H-pyran-2-yl)-1H-pyrazol-5-yl)benzyl)isoindolin-1-one]
65 | 96 | Cn1ccc(-c2ccc(CN3Cc4ncnc(Oc5c(F)cccc5F)c4C3=O)cc2)n1 [Example 395, 4-(2,6-difluorophenoxy)-6-(4-(1-methyl-1H-pyrazol-3-yl)benzyl)-6,7-dihydro-5H-pyrrolo[3,4-d]pyrimidin-5-one]
46 | 109 | Cc1nn(C)cc1-c1ccc(CN2Cc3ncnc(Oc4c(F)cccc4F)c3C2=O)c(F)c1 [Example 372, 4-(2,6-difluorophenoxy)-6-(4-(1,3-dimethyl-1H-pyrazol-4-yl)-2-fluorobenzyl)-6,7-dihydro-5H-pyrrolo[3,4-d]pyrimidin-5-one]
30 | 102 | CNC(=O)c1ccc(CN2Cc3ccnc(Oc4ccc(C(F)(F)F)cc4F)c3C2=O)cc1F [Example 435, 2-fluoro-4-((4-(2-fluoro-4-(trifluoromethyl)phenoxy)-3-oxo-1,3-dihydro-2H-pyrrolo[3,4-c]pyridin-2-yl)methyl)-N-methylbenzamide]
30 | 98 | Cn1cc(-c2ccc(CN3Cc4ccnc(Oc5ccc(OC(F)(F)F)cc5F)c4C3=O)cc2)cn1 [Example 362, 4-(2-fluoro-4-(trifluoromethoxy)phenoxy)-2-(4-(1-methyl-1H-pyrazol-4-yl)benzyl)-1,2-dihydro-3H-pyrrolo[3,4-c]pyridin-3-one]
19 | 103 | O=C1c2c(O[C@@H]3CCCC[C@H]3O)ccc(F)c2CN1Cc1ccc(-n2cccn2)cc1 (relative stereo) [Example 223, 4-fluoro-7-((trans-2-hydroxycyclohexyl)oxy)-2-(4-(1H-pyrazol-1-yl)benzyl)isoindolin-1-one]
10 | 104 | Cn1ccc(-c2ccc(CN3Cc4ccnc(Oc5ccc(C(C)(C)O)cc5F)c4C3=O)cc2)n1 [Example 413, 4-(2-fluoro-4-(2-hydroxypropan-2-yl)phenoxy)-2-(4-(1-methyl-1H-pyrazol-3-yl)benzyl)-1,2-dihydro-3H-pyrrolo[3,4-c]pyridin-3-one]
10 | 100 | Cn1cc(-c2ccc(CN3Cc4ccnc(Oc5ccc(C(F)F)cc5F)c4C3=O)cc2)cn1 [Example 391, 4-(4-(difluoromethyl)-2-fluorophenoxy)-2-(4-(1-methyl-1H-pyrazol-4-yl)benzyl)-1,2-dihydro-3H-pyrrolo[3,4-c]pyridin-3-one]
10 | 110 | Cc1ccn(-c2ccc(CN3Cc4cccc(O[C@H]5CCCC[C@@H]5O)c4C3=O)cc2)n1 (relative stereo) [Example 32, 7-((trans-2-hydroxycyclohexyl)oxy)-2-(4-(3-methyl-1H-pyrazol-1-yl)benzyl)isoindolin-1-one]
10 | 109 | Cn1ccc(-c2ccc(CN3Cc4ccnc(O[C@H]5CCC[C@@H]5O)c4C3=O)c(F)c2)n1 (relative stereo) [Example 236, 2-(2-fluoro-4-(1-methyl-1H-pyrazol-3-yl)benzyl)-4-((trans-2-hydroxycyclopentyl)oxy)-1,2-dihydro-3H-pyrrolo[3,4-c]pyridin-3-one]
7.6 | 83 | Cn1cc(-c2ccc(CN3Cc4cccc(Oc5c(F)cc(C#N)cc5F)c4C3=O)nc2)cn1 [Example 377, 3,5-difluoro-4-((2-((5-(1-methyl-1H-pyrazol-4-yl)pyridin-2-yl)methyl)-3-oxo-2,3-dihydro-1H-isoindol-4-yl)oxy)benzonitrile]
2.1 | 85 | Cc1nn(C)cc1-c1ccc(CN2Cc3ccnc(OC4CCc5cccnc54)c3C2=O)c(F)c1 (stereo not shown) [Example 346, 4-(6,7-dihydro-5H-cyclopenta[b]pyridin-7-yloxy)-2-(4-(1,3-dimethyl-1H-pyrazol-4-yl)-2-fluorobenzyl)-1,2-dihydro-3H-pyrrolo[3,4-c]pyridin-3-one]

Source: patent publication US9777005B2 (Takeda Pharmaceutical Company Limited, priority 2012, dated 2017)
